The values that follow are results of earlier work, collected in patent US20120231150A1, “Digestive Enzyme Inhibitor and Methods of Use” (TATE & LYLE INGREDIENTS AMERICAS, LLC, priority 2011, published 2012).

In this series the test system is postprandial blood glucose. As to conditions: use to control blood sugar levels.

As for `C[C@H]1O[C@H](O[C@H]2[C@H](O)[C@@H](O)[C@@H](O[C@H]3[C@H](O)[C@@H](O)C(O)O[C@@H]3CO)O[C@@H]2CO)[C@H](O)[C@@H](O)[C@@H]1N[C@H]1C=C(CO)[C@@H](O)[C@H](O)[C@H]1O` (stereo partly shown) [Acarbose], the side effects result is “undesirable side effects such as gas, bloating, diarrhea”.
